What was measured:
NBD1 = biological target: T1, NBD1 (Homo sapiens, UniProt P13569); test: Aggregation analysis using differential static light scattering (DSLS), thermal stability of NBD1 (ΔTagg); type: binding; details: ΔTagg versus DMSO control, NBD1 0.2 mg/ml
T1 construct: Purified recombinant NBD1 was produced using previously described methods; made in house
Procedure, shortened: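 Differential static light scattering read from 25° C. to 70° C. every 0.5° C., ramp 1° C./min, on recombinant NBD1 (0.2 mg/ml; Tris/NaCl/MgCl2 buffer with 2 mM ATP, 2 mM DTT, pH 7.6, 1% glycerol) plus compound. Reported ΔTagg subtracts averaged DMSO Tagg from inflection-point Tagg; categories A ≤5, B >5-10, C >10-25° C.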

CFTR = biological target: T2, CFTR (Homo sapiens, UniProt P13569, DEL508-508); test: TECC24 AUC fold over DMSO @10 μM, CFTR-mediated transepithelial chloride transport in CF-HBE cells; type: cell-based; details: test agent AUC divided by DMSO vehicle AUC, primary CF-HBE cells, ΔF508 homozygous donor, 48 hours incubation
T2 construct: Primary human bronchial epithelial cells from a ΔF508 homozygous CF donor; host or cells: primary human bronchial epithelial cells (CF-HBE), ΔF508 homozygous donor
Procedure, shortened: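 Primary ΔF508-homozygous CF bronchial epithelial cells on inserts were incubated 48 h at 36.5 °C with compound in IL-13-containing medium. VT and TEER were then recorded in current-clamp mode (pH 7.4 HEPES bath) with benzamil 10 μM, forskolin 10 μM, then CFTR inhibitor-172 20 μM. The IEQ AUC between forskolin and inhibitor was divided by vehicle AUC.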

T1 sequence (P13569 423-646 limits assumed): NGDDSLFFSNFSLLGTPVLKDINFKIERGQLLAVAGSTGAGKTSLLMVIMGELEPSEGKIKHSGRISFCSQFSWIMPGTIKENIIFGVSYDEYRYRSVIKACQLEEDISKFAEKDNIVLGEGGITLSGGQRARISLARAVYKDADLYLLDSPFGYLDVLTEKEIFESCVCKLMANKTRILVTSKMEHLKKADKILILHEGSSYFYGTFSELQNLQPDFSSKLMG
T2 sequence (P13569 with tags, fused parts or gaps DEL508-508): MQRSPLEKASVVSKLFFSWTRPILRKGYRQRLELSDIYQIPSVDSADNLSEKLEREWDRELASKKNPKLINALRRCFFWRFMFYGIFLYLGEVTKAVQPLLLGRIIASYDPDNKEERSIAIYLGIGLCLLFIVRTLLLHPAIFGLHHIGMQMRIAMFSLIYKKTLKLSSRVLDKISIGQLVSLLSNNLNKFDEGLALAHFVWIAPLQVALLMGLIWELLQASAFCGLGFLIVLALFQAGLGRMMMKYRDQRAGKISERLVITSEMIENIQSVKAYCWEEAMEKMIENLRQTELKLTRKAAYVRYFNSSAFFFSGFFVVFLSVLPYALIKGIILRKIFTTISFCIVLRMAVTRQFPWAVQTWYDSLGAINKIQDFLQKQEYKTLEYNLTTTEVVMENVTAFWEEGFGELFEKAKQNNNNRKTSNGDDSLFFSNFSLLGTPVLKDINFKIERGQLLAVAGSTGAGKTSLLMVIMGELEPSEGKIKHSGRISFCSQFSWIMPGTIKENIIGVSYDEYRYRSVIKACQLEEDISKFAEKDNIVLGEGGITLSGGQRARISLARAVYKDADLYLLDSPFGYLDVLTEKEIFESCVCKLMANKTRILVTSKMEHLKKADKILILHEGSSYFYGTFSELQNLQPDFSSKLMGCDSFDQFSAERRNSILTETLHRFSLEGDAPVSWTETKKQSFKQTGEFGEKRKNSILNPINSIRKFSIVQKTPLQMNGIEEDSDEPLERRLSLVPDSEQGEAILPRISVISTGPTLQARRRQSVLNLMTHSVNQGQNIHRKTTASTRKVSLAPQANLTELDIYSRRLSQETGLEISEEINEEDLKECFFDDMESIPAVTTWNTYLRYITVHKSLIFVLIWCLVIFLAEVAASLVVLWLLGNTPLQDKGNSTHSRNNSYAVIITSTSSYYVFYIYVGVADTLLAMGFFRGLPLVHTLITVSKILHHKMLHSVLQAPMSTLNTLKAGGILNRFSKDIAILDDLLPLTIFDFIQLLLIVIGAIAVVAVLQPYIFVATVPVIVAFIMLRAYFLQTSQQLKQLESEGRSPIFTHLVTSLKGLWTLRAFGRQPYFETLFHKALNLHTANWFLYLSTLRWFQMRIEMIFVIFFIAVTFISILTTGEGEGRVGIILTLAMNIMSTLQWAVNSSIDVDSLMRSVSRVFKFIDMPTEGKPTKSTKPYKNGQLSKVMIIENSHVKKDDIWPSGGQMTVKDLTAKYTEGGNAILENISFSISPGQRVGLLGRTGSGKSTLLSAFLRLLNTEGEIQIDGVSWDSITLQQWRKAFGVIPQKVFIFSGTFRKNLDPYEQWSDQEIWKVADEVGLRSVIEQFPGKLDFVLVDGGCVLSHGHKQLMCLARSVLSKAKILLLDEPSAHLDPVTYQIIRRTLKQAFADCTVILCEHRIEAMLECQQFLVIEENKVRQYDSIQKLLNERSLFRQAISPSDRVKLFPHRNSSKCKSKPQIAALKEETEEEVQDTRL

SMILES | DSLS 3D (100 μM ΔT) (NBD1) | TECC (AUC, 10 μM) (CFTR)
C[C@@H](Cc1cccc(C2(C)CCCC(C)(C)CS(=O)(=O)CCc3c(c(F)cc4[nH]ccc34)Oc3ccc(F)c(c3)-c3nc2nn3C)c1)C(=O)OCOC(=O)C(C)(C)C (single isomer, unassigned) [Compound 145] | A (an ΔTagg value less than or equal to 5 °C is marked “A”) | C (a value between 20 and 80 is marked “C”)
C[C@@H](Cc1cccc(C2(C)CCCC(C)(C)CS(=O)(=O)CCc3c(c(F)cc4[nH]ccc34)Oc3ccc(F)c(c3)-c3nc2nn3C)c1)C(=O)NS(C)(=O)=O (single isomer, unassigned) [Compound 146] | C (a value greater than 10 °C and less than or equal to 25 °C is marked “C”) | A (a TECC value less than 12 is marked “A”)
CONC(=O)[C@@H](C)Cc1cccc(C2(C)CCCC(C)(C)CS(=O)(=O)CCc3c(c(F)cc4[nH]ccc34)Oc3ccc(F)c(c3)-c3nc2nn3C)c1 (single isomer, unassigned) [Compound 147] | C (a value greater than 10 °C and less than or equal to 25 °C is marked “C”) | A (a TECC value less than 12 is marked “A”)
C[C@@H](Cc1cccc(C2(C)CCCC(C)(C)CS(=O)(=O)CCc3c(c(F)cc4[nH]ccc34)Oc3ccc(F)c(c3)-c3nc2nn3C)c1)C(=O)NOCC(O)CO (single isomer, unassigned) [Compound 148] | C (a value greater than 10 °C and less than or equal to 25 °C is marked “C”) | C (a value between 20 and 80 is marked “C”)
CNC(=O)[C@@H](C)Cc1cccc(C2(C)CCCC(C)(C)CS(=O)(=O)CCc3c(c(F)cc4[nH]ccc34)Oc3ccc(F)c(c3)-c3nc2nn3C)c1 (single isomer, unassigned) [Compound 149] | C (a value greater than 10 °C and less than or equal to 25 °C is marked “C”) | A (a TECC value less than 12 is marked “A”)
C[C@@H](Cc1cccc(C2(C)CCCC(C)(C)CS(=O)(=O)CCc3c(c(F)cc4[nH]ccc34)Oc3ccc(F)c(c3)-c3nc2nn3C)c1)C(=O)NS(=O)(=O)C1CC1 (single isomer, unassigned) [Compound 150] | C (a value greater than 10 °C and less than or equal to 25 °C is marked “C”) | A (a TECC value less than 12 is marked “A”)
COCC(Cc1cccc(C2(C)CCCC(C)(C)CS(=O)(=O)CCc3c(c(F)cc4[nH]ccc34)Oc3ccc(F)c(c3)-c3nc2nn3C)c1)C(=O)O (single isomer, unassigned) [Compound 153A, 2-[[3-(22,28-difluoro-3,6,10,10-tetramethyl-12,12-dioxo-24-oxa-12λ6-thia-3,4,19,30-tetrazapentacyclo[23.3.1.12,5.015,23.016,20]triaconta-1(29),2(30),4,15,17,20,22,25,27-nonaen-6-yl)phenyl]methyl]-3-methoxy-propanoic Acid] | C (a value greater than 10 °C and less than or equal to 25 °C is marked “C”) | C (a value between 20 and 80 is marked “C”)
COCC(Cc1cccc(C2(C)CCCC(C)(C)CS(=O)(=O)CCc3c(c(F)cc4[nH]ccc34)Oc3ccc(F)c(c3)-c3nc2nn3C)c1)C(=O)O (single isomer, unassigned) [Compound 153B, 2-[[3-(22,28-difluoro-3,6,10,10-tetramethyl-12,12-dioxo-24-oxa-12λ6-thia-3,4,19,30-tetrazapentacyclo[23.3.1.12,5.015,23.016,20]triaconta-1(29),2(30),4,15,17,20,22,25,27-nonaen-6-yl)phenyl]methyl]-3-methoxy-propanoic Acid] | A (an ΔTagg value less than or equal to 5 °C is marked “A”) | C (a value between 20 and 80 is marked “C”)
COCC(Cc1cccc(C2(C)CCCC(C)(C)CS(=O)(=O)CCc3c(c(F)cc4[nH]ccc34)Oc3ccc(F)c(c3)-c3nc2nn3C)c1)C(=O)O (single isomer, unassigned) [Compound 153C, 2-[[3-(22,28-difluoro-3,6,10,10-tetramethyl-12,12-dioxo-24-oxa-12λ6-thia-3,4,19,30-tetrazapentacyclo[23.3.1.12,5.015,23.016,20]triaconta-1(29),2(30),4,15,17,20,22,25,27-nonaen-6-yl)phenyl]methyl]-3-methoxy-propanoic Acid] | A (an ΔTagg value less than or equal to 5 °C is marked “A”) | A (a TECC value less than 12 is marked “A”)
C[C@H](Cc1cccc(C2(C)CCCC(C)(C)CS(=O)(=O)CCc3c(c(F)cc4[nH]ccc34)Oc3ccc(F)c(c3)-c3nc2c[nH]3)c1)C(=O)O (single isomer, unassigned) [Compound 157A] | A (an ΔTagg value less than or equal to 5 °C is marked “A”) | A (a TECC value less than 12 is marked “A”)
C[C@H](Cc1cccc(C2(C)CCCC(C)(C)CS(=O)(=O)CCc3c(c(F)cc4[nH]ccc34)Oc3ccc(F)c(c3)-c3nc2c[nH]3)c1)C(=O)O (single isomer, unassigned) [Compound 157B] | C (a value greater than 10 °C and less than or equal to 25 °C is marked “C”) | A (a TECC value less than 12 is marked “A”)
C[C@@H](Cc1cccc(C2(C)CCCC(C)(C)CS(=O)(=O)CCc3c(c(F)cc4[nH]ccc34)Oc3ccc(F)c(c3)-c3nc2nn3C)c1)C(N)=O (single isomer, unassigned) [Compound 158] | C (a value greater than 10 °C and less than or equal to 25 °C is marked “C”) | A (a TECC value less than 12 is marked “A”)
COCCOCCOCCOC(=O)[C@@H](C)Cc1cccc(C2(C)CCCC(C)(C)CS(=O)(=O)CCc3c(c(F)cc4[nH]ccc34)Oc3ccc(F)c(c3)-c3nc2nn3C)c1 (single isomer, unassigned) [Compound 165] | B (a value above 5 °C and less than or equal to 10 °C is marked “B”) | C (a value between 20 and 80 is marked “C”)
C/C(=C\c1cccc(C2(C)CCCC(C)(C)CS(=O)(=O)CCc3c(c(F)cc4[nH]ccc34)Cc3ccc(F)c(c3)-c3nc2nn3C)c1)C(=O)O (single isomer, unassigned) [Compound 166A, (E)-3-[3-(22,28-difluoro-3,6,10,10-tetramethyl-12,12-dioxo-12λ6-thia-3,4,19,30-tetrazapentacyclo-[23.3.1.12,5.015,23.016,20]triaconta-1(29),2(30),4,15,17,20,22,25,27-nonaen-6-yl)phenyl]-2-methyl-prop-2-enoic Acid] | C (a value greater than 10 °C and less than or equal to 25 °C is marked “C”) | B (a value between 12-20 is marked “B”)
C/C(=C\c1cccc(C2(C)CCCC(C)(C)CS(=O)(=O)CCc3c(c(F)cc4[nH]ccc34)Cc3ccc(F)c(c3)-c3nc2nn3C)c1)C(=O)O (single isomer, unassigned) [Compound 166B, (E)-3-[3-(22,28-difluoro-3,6,10,10-tetramethyl-12,12-dioxo-12λ6-thia-3,4,19,30-tetrazapentacyclo-[23.3.1.12,5.015,23.016,20]triaconta-1(29),2(30),4,15,17,20,22,25,27-nonaen-6-yl)phenyl]-2-methyl-prop-2-enoic Acid] | A (an ΔTagg value less than or equal to 5 °C is marked “A”) | A (a TECC value less than 12 is marked “A”)

— patent US12649750B2, “Macrocyclic compounds, compositions, and methods of using thereof” (Sionna Therapeutics Inc., priority 2022, dated 2026)
